Assay results published in patent US11504381B1 (priority 2021, dated 2022).
pKi: −log10 of the molar value.

Legend:
recombinant MDM2 protein [1] = target: T1, recombinant MDM2 protein (Homo sapiens (Human), UniProt Q00987); settings: competitive binding vs fluorescently labeled peptide probe, 10% DMSO, pH 7.2; read-out: Fluorescence Polarization Assay KI
Experimental: The compounds binding to MDM2 were determined by a quantitative fluorescence polarization binding assay using a recombinant MDM2 protein and fluorescently labeled peptide probes using a BioTek Cytation 5 machine. Compounds were tested in 10% DMSO, 100 mM potassium phosphate pH 7.2, 100 ug/ml bovine γ-globulin, 0.02% (w/v) sodium azide and 0.01% (v/v) triton X-100. KI values of tested compounds were determined in a dose-dependent competitive binding experiment by fitting the sigmoidal dose-dependent FP increases as a function of […] concentrations using Graphpad Prism software.

recombinant MDM2 protein [2] = target: T1, recombinant MDM2 protein; test: biochemical; type: binding
Experimental: Qualitative evaluation of compound binding to MDM2 was determined using a fluorescence-based thermal shift assay with a Roche LC480 lightcycler. Each experiment was performed in ˜30 mins with ramping up of temperature to monitor thermal denaturation of MDM2. Compounds at 0.16 mM, 0.08 mM and 0.04 mM were added to recombinant MDM2 protein and SYPRO orange dye in 5% DMSO 50 mM Bis-Tris Propane pH 8.0 and 100 mM NaCl. Positive thermal shift was indicative of compound binding to the proteins of interest.

T1 sequence (Q00987 whole entry): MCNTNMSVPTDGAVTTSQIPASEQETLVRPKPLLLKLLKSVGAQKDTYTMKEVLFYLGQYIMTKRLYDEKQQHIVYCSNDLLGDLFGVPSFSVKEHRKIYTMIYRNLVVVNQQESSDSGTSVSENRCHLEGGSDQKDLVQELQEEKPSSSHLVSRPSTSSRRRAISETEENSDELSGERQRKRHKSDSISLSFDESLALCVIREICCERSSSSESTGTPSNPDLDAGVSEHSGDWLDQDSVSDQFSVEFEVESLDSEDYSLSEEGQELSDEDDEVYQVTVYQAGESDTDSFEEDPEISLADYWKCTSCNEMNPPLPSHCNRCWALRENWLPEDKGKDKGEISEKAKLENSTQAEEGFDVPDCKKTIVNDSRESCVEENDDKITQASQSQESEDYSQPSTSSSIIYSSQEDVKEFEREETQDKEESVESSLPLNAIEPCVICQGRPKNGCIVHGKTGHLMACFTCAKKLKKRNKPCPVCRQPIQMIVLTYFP

## CC(=O)Nc1cc(C(F)(F)F)cnc1N1CCN(CC(=O)O)CC1c1ccc(Cl)cc1 (stereo not shown) [Compound 2, 2-(4-(3-acetamido-5-(trifluoromethyl)pyridin-2-yl)-3-(4-chlorophenyl)piperazin-1-yl)acetic acid]
Recombinant MDM2 protein [1]
  pKi: 3.93
Recombinant MDM2 protein [2]; read-out: Thermal Shift 0.04 mM
  ΔTm at 40 µM: 0 °C
Recombinant MDM2 protein [2]; read-out: Thermal Shift 0.08 mM
  ΔTm at 80 µM: 0 °C
Recombinant MDM2 protein [2]; read-out: Thermal Shift 0.16 mM
  ΔTm at 160 µM: 0.6 °C
